The structures appear in SMILES notation.

In series [1] the test system is porcine aortic wall exposed to type I collagenase. In words: Tissue resistance to collagenase degradation after treatment. Conditions: type I collagenase 150 U/mL, 24 hours, 37° C.; fresh sample over 85% digested. It counts as biochemical. The protocol: Tissue resistance to collagenase degradation after treatment with various reagents is discussed. Specifically, samples of porcine aortic wall were either left untreated (fresh) or treated with Glut alone or Glut followed by tannic acid (TA). Glut treatment was performed with 0.6% (w/v) Glut for 1 day, and then 0.2% (w/v) Glut for 7 days at room temperature; Glut/TA treatment was performed with 0.6% (w/v) Glut for 1 day, and then 0.2% (w/v) Glut for 7 days at room temperature followed by 0.15% (w/v) TA for 4 days at 37° C. The treated samples were rinsed 3 times (1 hour each) in 100 mL water, and lyophilized to record dry weight. Samples with the amount of ˜15 to 25 mg dry weight were immersed in 1.2 mL of type I collagenase (150 U/mL) dissolved in 50 mM Tris buffer, 10 mM CaCl2, pH 7.4, and incubated at 37° C. with orbital shaking at 650 rpm for 24 hours. Following this exposure to collagenase, samples were centrifuged (10000 rpm, 10 minutes, 4° C.), individually rinsed three times in 1 mL water, lyophilized to obtain dry weight after collagenase, and the percent of digested tissue was calculated.
The percentage of tissue digestion was compared in graphical format in FIG. 4.

Series [2] has as its system porcine carotid arteries exposed to porcine pancreatic elastase. In words: Tissue resistance to elastase degradation after treatment. In kind it is biochemical. Conditions: 0.6% Glut, 0.15% PGG, 20 minutes total treatment (cocktail 20 min or 10 min + 10 min sequential); elastase 3 units/mL 24 hrs 37° C.; compared to saline controls. The protocol: This example involves model results based on in vitro treatment of tissue samples for period of time that are realistic for in vivo applications. Specifically, tissue resistance to elastase degradation after treatment with various reagents is discussed. Specifically, porcine carotid arteries were treated with saline (control, for 20 minutes), Glut (for 20 minutes), PGG (for 20 minutes), or a combination of the two (Glut+PGG for 20 minutes, or Glut for 10 minutes followed by a separate incubation with PGG for 10 minutes). Concentrations of the reagents used were 0.6% (w/v) for Glut, 0.15% (w/v) for PGG and 9 g/L for physiological saline.
The treated tissue was then exposed to an in vitro elastase digestion assay to subject the treated tissue to digestion for 24 hrs. Briefly, tissue samples were incubated individually with 1 mL of 3 units/mL porcine pancreatic elastase (Elastin Products Company; Owensville, Mo.) dissolved in 100 mM Tris buffer, 1 mM CaCl2, 0.02% NaN3, pH 7.8. Incubation with the elastase was conducted for 24 hrs at 37° C. with orbital shaking at 500 rpm. Because the values shown are percentage of digestion, the lower the value, the better the reagent used performed in resisting elastase degradation. […] It should be noted that the digestion model used in this experiment is a very accelerated and aggressive digestion model.

For series [3] the following is noted: collagen crosslinking/stabilization; cited from earlier work.

With `O=CCCCC=O` [Glut, Glutaraldehyde], the “percent of digested tissue (mass loss)” value in series [1] is “over 20%”. Besides, the “percentage digestion by elastase (resistance to degradation)” value in series [2] is listed as “slightly improved the resistance of the tissue to degradation”.

Consider `COC(=O)C1=CO[C@@H](O)[C@@H]2C(CO)=CC[C@H]12` [genipin, Genipin], for which the toxicity entry in series [3] is reported as “relatively non-toxic”.

These data come from patent US20160136109A1, “COMPOSITIONS FOR TISSUE STABILIZATION” (Vatrix Medical, Inc., priority 2008, published 2016).
